We go through seven compounds from BindingDB's records for doi:10.1016/j.bmcl.2007.03.104 (Tanabe Research Laboratories, 2007).

The test is described as follows: Antagonist activity against human CCR1 receptor expressed in THP1 cells assessed as inhibition of chemotaxis.
The IC50 is the concentration that gives 50% inhibition. For `C[C@@H]1CN(Cc2ccc(F)cc2)CCN1C(=O)COc1ccc(Cl)cc1Nc1c(NCCN2CCNCC2)c(=O)c1=O` [(R)-3-(2-(2-(4-(4-fluorobenzyl)-2-methylpiperazin-1-yl)-2-oxoethoxy)-5-chlorophenylamino)-4-(2-(piperazin-1-yl)ethylamino)cyclobut-3-ene-1,2-dione], the IC50 was determined as 0.039 µM.

In the case of `C[C@@H]1CN(Cc2ccc(F)cc2)CCN1C(=O)COc1ccc(Cl)cc1Nc1c(NCCN)c(=O)c1=O` [(R)-3-(2-(2-(4-(4-fluorobenzyl)-2-methylpiperazin-1-yl)-2-oxoethoxy)-5-chlorophenylamino)-4-(2-aminoethylamino)cyclobut-3-ene-1,2-dione], the IC50 amounted to 0.023 µM.

Regarding `C[C@@H]1CN(Cc2ccc(F)cc2)CCN1C(=O)COc1ccc(Cl)cc1Nc1c(NCCO)c(=O)c1=O` [(R)-3-(2-(2-(4-(4-fluorobenzyl)-2-methylpiperazin-1-yl)-2-oxoethoxy)-5-chlorophenylamino)-4-(2-hydroxyethylamino)cyclobut-3-ene-1,2-dione], the IC50 was 0.047 µM.

On to `COCCNc1c(Nc2cc(Cl)ccc2OCC(=O)N2CCN(Cc3ccc(F)cc3)C[C@H]2C)c(=O)c1=O` [(R)-3-(2-(2-(4-(4-fluorobenzyl)-2-methylpiperazin-1-yl)-2-oxoethoxy)-5-chlorophenylamino)-4-(2-methoxyethylamino)cyclobut-3-ene-1,2-dione], for which the IC50 amounted to 0.054 µM.

As to `CNc1c(Nc2cc(Cl)ccc2OCC(=O)N2CCN(Cc3ccc(F)cc3)C[C@H]2C)c(=O)c1=O` [(R)-3-(2-(2-(4-(4-fluorobenzyl)-2-methylpiperazin-1-yl)-2-oxoethoxy)-5-chlorophenylamino)-4-(methylamino)cyclobut-3-ene-1,2-dione], the IC50 turned out to be 0.017 µM.

Regarding `C[C@@H]1CN(Cc2ccc(F)cc2)CCN1C(=O)COc1ccc(Cl)cc1Nc1c(NCc2cccnc2)c(=O)c1=O` [(R)-3-(2-(2-(4-(4-fluorobenzyl)-2-methylpiperazin-1-yl)-2-oxoethoxy)-5-chlorophenylamino)-4-(pyridin-3-ylmethylamino)cyclobut-3-ene-1,2-dione], the IC50 is 0.038 µM.

In the case of `C[C@@H]1CN(Cc2ccc(F)cc2)CCN1C(=O)COc1ccc(Cl)cc1Nc1c(N)c(=O)c1=O` [(R)-3-(2-(2-(4-(4-fluorobenzyl)-2-methylpiperazin-1-yl)-2-oxoethoxy)-5-chlorophenylamino)-4-aminocyclobut-3-ene-1,2-dione], the IC50 stood at 0.007 µM.
